Measured values from patent US11957677B2, “Cancer treatment using FGFR inhibitors and PLK1 inhibitors” (Cardiff Oncology, Inc., priority 2021, dated 2024).

What was measured:
IGFR = IGFR (Homo sapiens, UniProt P08069); conditions: cellular; read-out: IC50, cellular IGFR ligand-induced phosphorylation; cited from earlier work
γ-H2AX [1] = assay: γ-H2AX by Western Blot; assay type: cell-based; conditions: NCI-H1703
γ-H2AX [2] = assay: γ-H2AX positive cells by flow cytometry; assay type: cell-based; conditions: NCI-H1703
Source text: To confirm the above observations, percentage of γ-H2AX positive cells was quantified using flow cytometry.

[3] = tested on: FGFR1-amplified lung cancer cells; conditions: in combination with FGFR inhibitors; cited from earlier work
cleaved caspase-3 [4] = assay: cleaved-caspase-3 positive cells by flow cytometry; assay type: cell-based; conditions: NCI-H1703; 24 h and 48 h; onvansertib 50 nM, AZD4547 2.5 μM
PLK1 = PLK1 (Homo sapiens, UniProt P53350); conditions: among a panel of 296 kinases, including other PLK members; cited from earlier work
Sequence of PLK1 (P53350 whole entry): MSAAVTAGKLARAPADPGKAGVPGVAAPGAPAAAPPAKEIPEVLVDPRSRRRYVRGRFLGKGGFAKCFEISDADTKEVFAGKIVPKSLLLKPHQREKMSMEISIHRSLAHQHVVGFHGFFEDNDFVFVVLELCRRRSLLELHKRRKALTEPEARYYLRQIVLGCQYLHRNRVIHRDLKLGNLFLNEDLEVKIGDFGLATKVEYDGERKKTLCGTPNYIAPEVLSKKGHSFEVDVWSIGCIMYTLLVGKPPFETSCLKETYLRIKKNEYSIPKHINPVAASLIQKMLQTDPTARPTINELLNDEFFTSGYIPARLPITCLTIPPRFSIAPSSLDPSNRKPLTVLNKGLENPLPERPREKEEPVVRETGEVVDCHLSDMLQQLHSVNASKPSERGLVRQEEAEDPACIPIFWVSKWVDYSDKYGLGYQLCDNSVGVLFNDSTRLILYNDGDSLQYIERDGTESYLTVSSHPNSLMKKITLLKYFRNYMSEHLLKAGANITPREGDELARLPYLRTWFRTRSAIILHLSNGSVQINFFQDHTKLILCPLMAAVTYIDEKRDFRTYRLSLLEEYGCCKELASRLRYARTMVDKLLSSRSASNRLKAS

NCI-H1703 cells [5] = assay: colony forming capacity, crystal violet staining; assay type: cell-based; conditions: onvansertib 50 nM, AZD4547 250 nM
Source text: The culture media was changed again after 3 days. After culturing for another 6 days, the NCI-H1703 cells were stained with crystal violet. The workflow of determining colony forming capacity is illustrated in FIG. 21. […] The colonies formed by NCI-H1703 cells shown in FIG. 22 were quantified as indicated by percentage relative intensity (FIG. 23).

NPM at Threonine 199 = assay: phosphorylation of NPM at Threonine 199; assay type: cell-based; conditions: NCI-H1703; 6 hrs, 24 hrs and 48 hrs
AML cell lines = conditions: cited from earlier work
[6] = tested on: phosphorylated histone H3 (pHH3); assay: pHH3 positive cells by flow cytometry; assay type: cell-based; conditions: NCI-H1703
Experimental: (§1) The percentage of pHH3 positive cells was also determined using flow cytometry at 24 h and 48 h.

cleaved caspase-3 [7] = assay: cleaved caspase-3 by Western Blot; assay type: cell-based; conditions: NCI-H1703; 24 h and 48 h; onvansertib 50 nM, AZD4547 2.5 μM
Experimental: In addition, the amounts of cleaved caspase-3 and cleaved PARP were determined at 6 h, 24 h and 48 h after different treatments using Western Blot.

[8] = patients, cited from earlier work
NCI-H1703 cells [9] = assay: cell cycle analysis; assay type: cell-based; conditions: 48 hrs, onvansertib 50 nM, AZD4547 2.5 μM
Experimental: as §1

[10] = time point not given, compared to cells receiving no treatment
[11] = time point not given, compared to DMSO
[12] = 24 h and 48 h, onvansertib 50 nM, AZD4547 2.5 μM

Sequence of IGFR (P08069 31-1367): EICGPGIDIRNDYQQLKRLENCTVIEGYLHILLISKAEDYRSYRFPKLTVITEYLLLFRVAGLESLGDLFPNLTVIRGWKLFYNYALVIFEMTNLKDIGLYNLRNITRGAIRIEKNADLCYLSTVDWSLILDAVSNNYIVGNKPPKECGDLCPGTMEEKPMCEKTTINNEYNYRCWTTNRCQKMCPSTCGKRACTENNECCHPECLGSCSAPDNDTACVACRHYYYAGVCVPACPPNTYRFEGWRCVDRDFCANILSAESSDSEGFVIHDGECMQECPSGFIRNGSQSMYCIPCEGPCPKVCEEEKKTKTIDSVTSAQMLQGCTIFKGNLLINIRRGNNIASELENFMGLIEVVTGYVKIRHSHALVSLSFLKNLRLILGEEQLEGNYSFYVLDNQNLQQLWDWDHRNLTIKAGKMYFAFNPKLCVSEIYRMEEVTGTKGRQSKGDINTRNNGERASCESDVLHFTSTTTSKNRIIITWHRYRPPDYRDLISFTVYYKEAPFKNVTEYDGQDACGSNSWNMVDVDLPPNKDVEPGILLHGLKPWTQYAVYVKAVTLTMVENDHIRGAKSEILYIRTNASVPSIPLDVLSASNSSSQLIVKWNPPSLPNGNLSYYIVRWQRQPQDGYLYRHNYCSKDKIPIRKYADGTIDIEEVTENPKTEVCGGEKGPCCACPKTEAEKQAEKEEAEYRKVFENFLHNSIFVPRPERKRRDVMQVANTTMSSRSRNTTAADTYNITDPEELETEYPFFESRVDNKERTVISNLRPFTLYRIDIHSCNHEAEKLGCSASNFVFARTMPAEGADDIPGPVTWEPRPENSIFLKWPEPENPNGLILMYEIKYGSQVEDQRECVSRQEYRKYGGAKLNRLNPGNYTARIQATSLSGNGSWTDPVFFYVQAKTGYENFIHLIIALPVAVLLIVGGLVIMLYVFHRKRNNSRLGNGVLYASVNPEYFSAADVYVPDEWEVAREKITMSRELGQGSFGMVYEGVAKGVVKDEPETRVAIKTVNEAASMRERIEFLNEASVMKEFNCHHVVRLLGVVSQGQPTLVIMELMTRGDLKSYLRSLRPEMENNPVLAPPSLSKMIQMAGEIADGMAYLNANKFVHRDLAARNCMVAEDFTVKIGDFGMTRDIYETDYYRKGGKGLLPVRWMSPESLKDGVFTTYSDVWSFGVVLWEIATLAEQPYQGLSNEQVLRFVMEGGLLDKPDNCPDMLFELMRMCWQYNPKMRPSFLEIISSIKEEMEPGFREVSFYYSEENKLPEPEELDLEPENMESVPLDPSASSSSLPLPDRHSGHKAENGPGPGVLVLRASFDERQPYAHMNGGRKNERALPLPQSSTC

SMILES | IC50 (IGFR) | amounts of γ-H2AX (γ-H2AX [1]; [10]) | percentage of γ-H2AX positive cells (γ-H2AX [2]; [11]) | antiproliferative effects and apoptosis [3] | percentage of cleaved-caspase-3 positive cells (cleaved caspase-3 [4]) | specificity for PLK1 (PLK1) | colony-forming capacity (NCI-H1703 cells [5]) | phosphorylation of NPM at Threonine 199 (NPM at Threonine 199) | inhibition of cell proliferation (AML cell lines) | percentage of pHH3 positive cells ([6]; 24 h) | percentage of pHH3 positive cells ([6]; 48 h) | amounts of γ-H2AX (γ-H2AX [1]; [12]) | amount of cleaved caspase-3 (cleaved caspase-3 [7]) | primary dose-limiting toxicities ([8]; phase I dose-escalation) | recovery of hematologic toxicities ([8]; reversible toxicities, phase I) | % of cells in G2 and/or mitotic stages (NCI-H1703 cells [9]) | percentage of γ-H2AX positive cells (γ-H2AX [2]; [12])
COc1cc(CCc2cc(NC(=O)c3ccc(N4C[C@@H](C)N[C@@H](C)C4)cc3)n[nH]2)cc(OC)c1 [AZD4547, N-[5-[2-(3,5-Dimethoxyphenyl)ethyl]-2H-pyrazol-3-yl]-4-(3,5-diemthylpiperazin-1-yl)benzamide] | 0.828 µM | about the same | about the same | – | – | – | – | – | – | – | – | – | – | – | – | – | –
CC[C@@H]1C(=O)N(C)c2cnc(Nc3ccc(C(=O)NC4CCN(C)CC4)cc3OC)nc2N1C1CCCC1 [BI2536] | – | – | – | synergistically enhances antiproliferative effects and apoptosis | – | – | – | – | – | – | – | – | – | – | – | – | –
CN1CCN(c2ccc(OC(F)(F)F)c(Nc3ncc4c(n3)-c3c(c(C(N)=O)nn3CCO)CC4)c2)CC1 [onvansertib, 1-(2-hydroxyethyl)-8-{[5-(4-methylpiperazin-1-yl)-2-(trifluoromethoxy)phenyl]amino}-4,5-dihydro-1H-pyrazolo[4,3-h] quinazoline-3-carboxamide] | – | about the same | about the same | – | increased the percentage of cleaved-caspase-3 positive cells | high specificity | reduced the colony-forming capacity | Increased phosphorylation of NPM | inhibited cell proliferation at nanomolar concentrations | increased the percentage of pHH3 positive cells | increased the percentage of pHH3 positive cells to a similar extent | increased the γ-H2AX | increased the cleaved caspase-3 | neutropenia and thrombocytopenia | ≤ 3 weeks | increased the % of cells in G2 and/or mitotic stages | increased the percentage of γ-H2AX positive cells
